Target: FGFR1 (Homo sapiens (Human), UniProt P11362)
Assay: RBC NanoBRET Assay for Target Engagement in HEK293 cells transfected with FGFR1-NanoLuc Fusion vector
Format: cell-based
Conditions: 1 hour, tracer K5 1 μM
Experimental: Cellular Assay. The RBC NanoBRET Assay for Target Engagement was performed by Reaction Biology Corporation, 1 Great Valley Parkway, Suite 2 Malvern, PA 19355, USA. The assay was conducted in HEK293 cells transiently transfected with FGFR1-NanoLuc Fusion vector. The HEK293 cells (ATCC) were transfected with 1 μg of FGFR1-NanoLuc Fusion vector in 384-well format and the transfected cells were subsequently treated with the test compounds (starting at 10 μM, 10-dose with 3-fold dilution) for 1 hour using CTx-0294885 as the reference standard and K5 (1 μM) was used as the tracer. FGFR1 target engagement was measured and the curve fits were performed only when % NanoBret signal at the highest concentration of compounds was less than 55%.

Sequence of FGFR1 (P11362 22-822): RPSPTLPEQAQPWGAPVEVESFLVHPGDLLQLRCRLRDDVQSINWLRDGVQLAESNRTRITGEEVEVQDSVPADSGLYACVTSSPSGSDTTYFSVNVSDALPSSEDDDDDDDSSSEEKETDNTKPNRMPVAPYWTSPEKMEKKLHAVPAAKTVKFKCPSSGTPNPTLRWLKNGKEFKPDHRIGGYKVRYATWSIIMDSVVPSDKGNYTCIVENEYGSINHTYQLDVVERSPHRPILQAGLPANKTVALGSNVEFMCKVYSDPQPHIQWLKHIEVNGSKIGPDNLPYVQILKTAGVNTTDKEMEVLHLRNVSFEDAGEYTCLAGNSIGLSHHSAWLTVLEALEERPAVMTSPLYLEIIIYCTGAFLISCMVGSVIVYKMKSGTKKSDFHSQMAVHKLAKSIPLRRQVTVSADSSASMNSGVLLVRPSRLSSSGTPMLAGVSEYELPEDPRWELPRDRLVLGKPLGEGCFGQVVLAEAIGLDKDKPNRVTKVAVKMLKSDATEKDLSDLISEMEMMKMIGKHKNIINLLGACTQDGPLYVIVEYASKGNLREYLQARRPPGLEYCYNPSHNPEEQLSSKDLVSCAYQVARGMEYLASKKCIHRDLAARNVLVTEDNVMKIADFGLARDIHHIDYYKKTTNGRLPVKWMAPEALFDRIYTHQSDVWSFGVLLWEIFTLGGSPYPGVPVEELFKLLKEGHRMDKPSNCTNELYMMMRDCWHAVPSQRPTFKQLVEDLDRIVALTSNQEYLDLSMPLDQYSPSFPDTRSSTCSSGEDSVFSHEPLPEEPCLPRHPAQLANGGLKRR

- IC50: 35 nM
Structure (SMILES): CNC(=O)c1ccccc1Nc1nc(Nc2ccc(N3CCNCC3)cc2)ncc1Cl [CTx-0294885, reference compound]

— patent US20240002365A1, “PYRIDAZINE AND 1,2,4-TRIAZINE DERIVATIVES AS FGFR KINASE INHIBITORS” (BETA PHARMA, INC., priority 2020, published 2024)
